The subject of assay [1] is methicillin resistant Staphylococcus aureus (MRSA) ATCC#33591. As to the kind of experiment: microbe, parasite or virus in culture. Format: cell-based. The method, then: (§1) Antibiotic compositions of the invention were tested for antimicrobial activity against methicillin resistant Staphylococcus aureus (MRSA) ATCC#33591 and vancomycin resistant Enterococcus faecalis (VRE) ATCC#51575. Pathogen cultures were grown in tryptic soya broth (TSB) with 5 g/L NaCl (TSB+) overnight (˜18 hrs) at 37° C. The cultures were removed from the incubator and refrigerated at least 3 hours to stop further culture growth. Determined aliquot ratios of culture to broth to obtain approximately 2.5×10^5 CFU/ml., for which accurate counts were measured by serial dilution onto Tryptic Soy Agar with 5 g/L NaCl (TSA+) plates. Two fold dilution series' of […] were prepared for MRSA and VRE, respectively. All components except thiazolyl blue tetrazolium bromide (MTT) were added to the wells prior to an initial overnight incubation at 37° C. MTT was added to each well, 29 μl or […], for MRSA or VRE plates, respectively, followed by 1 hour incubation at 37° C. Vancomycin and/or Zyvoxam were included as reference compounds with vancomycin prepared in the same way as the test compounds. Zyvoxam was supplied as a 2 mg/ml solution. Minimum inhibitory concentration (MIC) endpoints were read as the lowest concentration showing no visible growth.

In assay [2] the test system is vancomycin resistant Enterococcus faecalis (VRE) ATCC#51575. As to the kind of experiment: organism not typed. Format: cell-based. The method, then:
as §1

Where [3] appears, read: MRSA, lowest concentration showing no visible growth, overnight incubation at 37° C.
Setting [4] is: VRE, lowest concentration showing no visible growth, overnight incubation at 37° C.

Values after ≈ are worked out from the molar mass of the structure shown.

Turning to `C=C1NC(=O)[C@H]([C@@H](C)CC)NC(=O)[C@H](NC(=O)C(=CC)NC(=O)[C@@H](N)[C@@H](C)CC)CSC[C@@H](C(=O)N[C@H]2C(=O)N3CCC[C@H]3C(=O)NCC(=O)N[C@H](C(=O)N[C@@H](CCCCN)C(=O)NCCCCCCNC(=O)[C@H]3NC(=O)[C@H]4NC(=O)[C@H](NC(=O)[C@@H]5NC(=O)[C@H](CC(N)=O)NC(=O)[C@H](NC(=O)[C@@H](CC(C)C)NC)[C@H](O)c6ccc(c(Cl)c6)Oc6cc5cc(c6O[C@@H]5O[C@H](CO)[C@@H](O)[C@H](O)[C@H]5O[C@H]5C[C@](C)(N)[C@H](O)[C@H](C)O5)Oc5ccc(cc5Cl)[C@H]4O)c4ccc(O)c(c4)-c4c(O)cc(O)cc43)CSC2C)NC(=O)[C@H](CC(C)C)NC1=O` (stereo partly shown) [Example 2, nisin(1-12)-1,6-diaminohexane-vancomycin], in assay [1] (methicillin resistant ATCC#33591, 18 h), the “minimum inhibitory concentration against MRSA” value was 0.04 µg/mL (≈ 0.0149 µM). The “minimum inhibitory concentration against VRE” value in assay [2] (vancomycin resistant (VRE) ATCC#51575, 18 h) is 20 µg/mL (≈ 7.46 µM).

Regarding `CN[C@H](CC(C)C)C(=O)N[C@H]1C(=O)N[C@@H](CC(N)=O)C(=O)N[C@H]2C(=O)N[C@H]3C(=O)N[C@H](C(=O)N[C@H](C(=O)O)c4cc(O)cc(O)c4-c4cc3ccc4O)[C@H](O)c3ccc(c(Cl)c3)Oc3cc2cc(c3O[C@@H]2O[C@H](CO)[C@@H](O)[C@H](O)[C@H]2O[C@H]2C[C@](C)(N)[C@H](O)[C@H](C)O2)Oc2ccc(cc2Cl)[C@H]1O` [vancomycin], the MIC in assay [1] (Staphylococcus aureus, read-out: minimum inhibitory concentration against MRSA) amounted to 1.2 µg/mL (≈ 0.828 µM); in assay [2] (read-out: minimum inhibitory concentration against VRE) it was 500 µg/mL (≈ 345 µM).

Regarding `CC(=O)NC[C@H]1CN(c2ccc(N3CCOCC3)c(F)c2)C(=O)O1` [zyvoxam], the “minimum inhibitory concentration against MRSA” value in assay [1] (setting [3]) turned out to be 0.3 µg/mL (≈ 0.889 µM). In assay [2] (setting [4]), the “minimum inhibitory concentration against VRE” value amounted to 1.2 µg/mL (≈ 3.56 µM).

With Nisin[1-12] polypeptide fragment, in assay [1] (MRSA, did not inhibit at as high as the stated concentration), the “highest concentration at which MRSA was not inhibited” value is over 10 µg/mL. In assay [2] (VRE, did not inhibit at as high as the stated concentration), the “highest concentration at which VRE was not inhibited” value is over 40 µg/mL.

On to nisin, for which, in assay [1] (setting [3]), the “minimum inhibitory concentration against MRSA” value fell in the range of 0.3 to 0.6 µg/mL. Also, the “minimum inhibitory concentration against VRE” value in assay [2] (setting [4]) lay in the range of 5 to 10 µg/mL.
